# US20140220108A1, “COCHLEATE COMPOSITIONS AND METHODS OF MAKING AND USING SAME” (priority 2011, published 2014)
# Like-named read-outs stand apart in the source and are kept apart here.
# Tests used:
# M. avium 101 [1] = assay: M. avium 101-infected mouse peritoneal macrophages (Raw 264.7), intracellular bacteria after 4 days of treatment; type: cell-based, Mycobacterium avium
# Experimental: (§1) Amikacin cochleate (Amkcch) formulations were optimized for amikacin encochleation efficiency and particle size by varying the type of PS used, the PS:drug ratio, PS:Ca ratio, and NaCl concentration. The efficacy of Amkcch against intracellular Ma infections was evaluated in vitro using mouse peritoneal macrophage infected with M. avium strains MAC 101 or MAC 109. Mouse peritoneal macrophages (Mo) Raw 264.7 cells were seeded at 10^5 cells/well. Mo monolayers were infected at ratio 1:10 for 1 h and extracellular bacteria removed. Monolayers were treated with free amikacin and/or cochleate preparations for 4 days and the number of intracellular bacteria determined. Assays were repeated three times.
# as §1, with “The” for “Amikacin cochleate (Amkcch) formulations were optimized for amikacin encochleation efficiency and particle size by varying the type of PS used, the PS:drug ratio, PS:Ca ratio, and NaCl concentration. The”, “Amkcch against,” for “Amkcch against”, “1 hour” for “1 h”
# The cochleate preparations used to evaluate biological activity against Mycobacterium avium in vitro included: 1. 2.0 ml/vial of 0 M NaCl amikacin formulation with 0.5 mg/ml; 2. 2.0 ml/vial of 0.066M NaCl amikacin formulation with 0.5 mg/ml; 3. 2.0 ml/vial of 0.33M NaCl amikacin formulation with 0.5 mg/ml; 4. 2.0 ml/vial of 0.66M NaCl amikacin formulation with 0.5 mg/ml; 5. 2.0 ml/vial of 0 M NaCl placebo formulation with 5 mg PS/ml; 6. 2.0 ml/vial of placebo formulation plus amikacin with 0.5 mg/ml; and 7. 2.0 ml/vial of free amikacin in water with 0.5 mg/ml.
# F. tularensis LVS = type: cell-based, Francisella tularensis; conditions: no treatment 3.0 ± 0.3 × 10^6
# [2] = Encochleation efficiency by lipid composition, drug in supernatant after centrifugation; type: physicochemical; conditions: independent of the lipid composition of the PS vesicles
# Experimental: For example, incorporation of phosphatidylserine (PS) combined with 99.9% pure dioleoyl PS, 99.9% pure soy PS, 75% soy PS and 50% soy PS, were used to manufacture cochleates. The lipid composition of 99.9% pure PS was modified by the addition of sphingomyelin, phosphatidylcholine and/or cholesterol. Encochleation efficiency was determined by assaying the concentration of drug in the supernatant following centrifugation.
# MAC184 strain = assay: MIC against clarithromycin-resistant clinical isolate MAC184; design: species or system M. avium; conditions: Mycobacterium avium
# MAC 101 = assay: MIC against susceptible M. avium strain MAC 101; conditions: Mycobacterium avium, such as MAC 101
# M. avium 109 = assay: M. avium 109-infected mouse peritoneal macrophages (Raw 264.7), intracellular bacteria after 4 days of treatment; type: cell-based, Mycobacterium avium; conditions: inoculum 2.4 ± 0.3 × 10^5, untreated 3.1 ± 0.6 × 10^6
# Experimental: as §1
# as §1, with “The” for “Amikacin cochleate (Amkcch) formulations were optimized for amikacin encochleation efficiency and particle size by varying the type of PS used, the PS:drug ratio, PS:Ca ratio, and NaCl concentration. The”, “Amkcch against,” for “Amkcch against”, “1 hour” for “1 h”
# The cochleate preparations used to evaluate biological activity against Mycobacterium avium in vitro included: 1. 2.0 ml/vial of 0 M NaCl amikacin formulation with 0.5 mg/ml; 2. […]
# M. avium 101 [3] = assay: Splenic bacterial counts in M. avium 101-infected C57BL/6 mice; type: in vivo, Mycobacterium avium; conditions: 1 mg amikacin/mouse/day, 2 weeks, 3 weeks infected control 7.8 ± 0.4 × 10^7
# M. avium = conditions: cited from earlier work
compound,measurement,setting,value
gentamicin [Free gentamicin],# bacteria day 4,"M. avium 101 [1]; gentamicin 30 μg/ml (30 μg/l in two rows), untreated 6.4 ± 0.5 × 10^6",1.9 ± 0.3 × 10^5
same,intracellular bacteria Day 4,F. tularensis LVS; gentamicin 2 μg/ml,9.3 ± 0.3 × 10^2 CFU/ml
"C[C@@H]1[C@H](O)[C@@H](C)/C=C/C=C/C=C/C=C/C=C/C=C/C=C/[C@H](O[C@@H]2O[C@H](C)[C@@H](O)[C@H](N)[C@@H]2O)C[C@@H]2O[C@](O)(C[C@@H](O)C[C@@H](O)[C@H](O)CC[C@@H](O)C[C@@H](O)CC(=O)O[C@H]1C)C[C@H](O)[C@H]2C(=O)O [AmB, Amphotericin B]",encochleation efficiency,[2],greater than 85%
CC[C@@H](CO)NCCN[C@@H](CC)CO [ethambutol],MIC,MAC184 strain,8 µg/mL
same,MIC,MAC 101,4 µg/mL
"NCC[C@H](O)C(=O)N[C@@H]1C[C@H](N)[C@@H](O[C@H]2O[C@H](CN)[C@@H](O)[C@H](O)[C@H]2O)[C@H](O)[C@H]1O[C@H]1O[C@H](CO)[C@@H](O)[C@H](N)[C@H]1O [Free amikacin, amikacin]",# bacteria day 4,"M. avium 101 [1]; 20 μg/l, inoculum 3.8 ± 0.4 × 10^5, untreated 4.9 ± 0.5 × 10^6",3.8 ± 0.5 × 10^4
same,# bacteria day 4,"M. avium 101 [1]; inoculum 3.8 ± 0.4 × 10^5, untreated 4.9 ± 0.5 × 10^6",4.9 ± 0.3 × 10^4
same,# bacteria day 4,M. avium 109; 10 μg/l,5.0 ± 0.3 × 10^4
same,# bacteria day 4,M. avium 109; 20 μg/l,2.9 ± 0.4 × 10^4
same,CFU/spleen,M. avium 101 [3]; I.P.,9.3 ± 0.4 × 10^6 CFU/spleen
same,CFU/spleen,M. avium 101 [3]; oral,6.9 ± 0.3 × 10^7 CFU/spleen
same,intracellular bacteria Day 4,F. tularensis LVS; amikacin 4 μg/ml,7.6 ± 0.3 × 10^2 CFU/ml
same,frequency of resistance,M. avium,10^−11
